Data: PubChem BioAssay (NCI)
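At the GI50, growth is halved. At the TGI there is no net growth.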

Assays:
Assay in all cases: growth of human tumour cells (NCI), 384-well format
[1] = tested on: LOX IMVI melanoma
[2] = tested on: ACHN renal
[3] = tested on: MDA-MB-231 breast
[4] = tested on: SR leukemia
[5] = tested on: IGROV1 ovarian
[6] = tested on: HL-60(TB) leukemia
[7] = tested on: CAKI-1 renal
[8] = tested on: KM12 colon
[9] = tested on: NCI-H460 NSCLC
[10] = tested on: UO-31 renal
[11] = tested on: CCRF-CEM leukemia
[12] = tested on: SF-539 CNS
[13] = tested on: TK-10 renal
[14] = tested on: SK-MEL-28 melanoma
[15] = tested on: SN12C renal
[16] = tested on: EKVX NSCLC
[17] = tested on: HCC-2998 colon
[18] = tested on: NCI-H23 lung
[19] = tested on: HCT-15 colon
[20] = tested on: U251 glioblastoma
[21] = tested on: MALME-3M melanoma
[22] = tested on: MDA-MB-468 breast
[23] = tested on: SF-268 CNS
[24] = tested on: RPMI-8226 leukemia
[25] = tested on: HT29 colon
[26] = tested on: M14 melanoma
[27] = tested on: COLO 205 colon
[28] = tested on: OVCAR-8 ovarian
[29] = tested on: HOP-62 NSCLC
[30] = tested on: MCF7 breast
[31] = tested on: A549 NSCLC
[32] = tested on: SNB-19 CNS
[33] = tested on: 786-0 renal
[34] = tested on: OVCAR-5 ovarian
[35] = tested on: UACC-62 melanoma
[36] = tested on: RXF 393 renal
[37] = tested on: SF-295 CNS
[38] = tested on: NCI-H322M lung
[39] = tested on: NCI-H522 lung
[40] = tested on: HS 578T breast
[41] = tested on: SNB-75 CNS
[42] = tested on: NCI-H226 lung
[43] = tested on: K-562 leukemia
[44] = tested on: A498 renal
[45] = tested on: SK-OV-3 ovarian
[46] = tested on: T-47D breast
[47] = tested on: SK-MEL-2 melanoma
[48] = tested on: OVCAR-4 ovarian

C=CC(=O)N1CCN(CCCn2c(=O)c(-c3c(Cl)c(OC)cc(OC)c3Cl)cc3cnc(NC)nc32)CC1
GI50 [1]: 2.63 µM | TGI [1]: 15.6 µM | GI50 [2]: 0.975 µM | TGI [2]: 11.3 µM | GI50 [3]: 3.94 µM | TGI [3]: 14.9 µM | GI50 [4]: 1.29 µM | TGI [4]: 3.04 µM | GI50 [5]: 0.888 µM | TGI [5]: 7.23 µM | GI50 [6]: 1.55 µM | TGI [6]: 4.2 µM | GI50 [7]: 0.478 µM | TGI [7]: 3.49 µM | GI50 [8]: 6.06 µM | TGI [8]: 18.8 µM | GI50 [9]: 2.51 µM | TGI [9]: 12.7 µM | GI50 [10]: 3.72 µM | TGI [10]: 15.9 µM | GI50 [11]: 1.51 µM | TGI [11]: 3.29 µM | GI50 [12]: 3.7 µM | TGI [12]: 16.4 µM | GI50 [13]: 5.98 µM | TGI [13]: 19.5 µM | GI50 [14]: 15.1 µM | TGI [14]: 39.5 µM | GI50 [15]: 2.36 µM | TGI [15]: 12.2 µM | GI50 [16]: 5.95 µM | TGI [16]: 19.6 µM | GI50 [17]: 9.16 µM | TGI [17]: 22 µM | GI50 [18]: 3.72 µM | TGI [18]: 15.3 µM | GI50 [19]: 2.37 µM | TGI [19]: 14.9 µM | GI50 [20]: 3.72 µM | TGI [20]: 16 µM | GI50 [21]: 1.92 µM | TGI [21]: 9.84 µM | GI50 [22]: 0.95 µM | TGI [22]: 2.68 µM | GI50 [23]: 1.22 µM | TGI [23]: 7.03 µM | GI50 [24]: 0.759 µM | TGI [24]: 2.39 µM | GI50 [25]: 4.61 µM | TGI [25]: 16.8 µM | GI50 [26]: 2.11 µM | TGI [26]: 16.1 µM | GI50 [27]: 10.9 µM | TGI [27]: 22.9 µM | GI50 [28]: 5.9 µM | TGI [28]: 19.2 µM | GI50 [29]: 3.06 µM | TGI [29]: 12.1 µM | GI50 [30]: 7.95 µM | TGI [30]: 20.7 µM | GI50 [31]: 3.23 µM | TGI [31]: 14.4 µM | GI50 [32]: 5.11 µM | TGI [32]: 17.3 µM | GI50 [33]: 2.38 µM | TGI [33]: 13.7 µM | GI50 [34]: 18.1 µM | TGI [34]: 46.3 µM | GI50 [35]: 1.9 µM | TGI [35]: 11.8 µM | GI50 [36]: 0.665 µM | TGI [36]: 3.03 µM | GI50 [37]: 8.31 µM | TGI [37]: 38.1 µM | GI50 [38]: 5.16 µM | TGI [38]: > 39.6 µM | GI50 [39]: 2.66 µM | TGI [39]: 11.8 µM | GI50 [40]: 0.327 µM | TGI [40]: 2.35 µM | GI50 [41]: 0.211 µM | TGI [41]: 4.88 µM | TGI [42]: 11.8 µM | GI50 [43]: 5.67 µM | TGI [43]: 18.3 µM | GI50 [44]: 0.462 µM | TGI [44]: 4.69 µM | GI50 [45]: 1.1 µM | TGI [45]: 9.48 µM | GI50 [46]: 2.86 µM | TGI [46]: 16.1 µM | GI50 [47]: 1.7 µM | TGI [47]: 5.09 µM | GI50 [48]: 3.14 µM | TGI [48]: 18 µM
